In patent US12545640B2, “Substituted 6,7-dihydro-5H-benzo[7]annulene compounds, processes for their preparation and therapeutic uses thereof” (SANOFI, priority 2019, dated 2026):
Structures can show the parent of a compound that is named as a salt.

Biological target: T1, ERα (Homo sapiens, UniProt P03372)
T1 construct: host or cells: MCF7 cells
T1 sequence (P03372 1-595): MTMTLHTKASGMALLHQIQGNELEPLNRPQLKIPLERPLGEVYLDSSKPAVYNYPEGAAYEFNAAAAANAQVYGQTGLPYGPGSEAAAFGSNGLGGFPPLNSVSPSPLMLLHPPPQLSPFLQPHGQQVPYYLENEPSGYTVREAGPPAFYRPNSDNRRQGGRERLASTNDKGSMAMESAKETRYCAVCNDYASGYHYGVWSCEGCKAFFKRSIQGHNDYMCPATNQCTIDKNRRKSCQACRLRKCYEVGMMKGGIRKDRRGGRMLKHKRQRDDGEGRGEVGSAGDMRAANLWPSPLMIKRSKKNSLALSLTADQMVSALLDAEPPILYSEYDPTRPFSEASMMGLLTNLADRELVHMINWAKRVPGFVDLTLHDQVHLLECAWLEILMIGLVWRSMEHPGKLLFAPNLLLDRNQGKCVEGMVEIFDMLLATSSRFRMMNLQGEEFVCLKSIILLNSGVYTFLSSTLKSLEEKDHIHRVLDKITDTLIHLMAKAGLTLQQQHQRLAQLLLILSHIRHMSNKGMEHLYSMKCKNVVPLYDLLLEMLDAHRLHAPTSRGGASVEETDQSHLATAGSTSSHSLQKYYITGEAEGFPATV
Experiment: Estrogen receptor degradation activity: breast cancer cell ERα in cell western assay (MCF7 cells)
Assay type: cell-based
Settings: 4 hours, final concentrations ranging from 0.3-0.0000018 μM, relative to fulvestrant 0.1 μM positive control
Procedure: Test: Estrogen Receptor Degradation Activity
Said test involves measuring the in vitro degradation activity of the compounds of the invention.
The measurements of the degradation activities were made using a breast cancer cell ERα in cell western assay as described hereunder.
MCF7 cells (ATCC) were seeded in 384 wells microplate (collagen coated) at a concentration of 10000 cells/30 μL, per well in red phenol free MEM alpha medium (invitrogen) containing 5% charcoal dextran striped FBS. The following day, 9 points serial 1:5 dilution of each compound was added to the cells in 2.5 μL at final concentrations ranging either from 3-0.000018 μM (column «% Degradation at 3 μM in table 2) or from 0.3-0.0000018 μM (column «% Degradation at 0.3 μM in table 2), or 0.1 μM for fulvestrant (using as positive control). At 4 hours post compound addition the cells were fixed by adding 25 μL of formalin (final concentration 5% formalin containing 0.1% triton) for 10 minutes at room temperature and then washed twice with PBS. Then, 50 μL of LI-COR blocking buffer containing 0.1% Triton was added to plate for 30 minutes at room temperature. LI-COR blocking buffer was removed and cells were incubated overnight at cold room with 50 μL anti-ER rabbit monoclonal antibody (Thermo scientific MA1-39540) diluted at 1:1000 in LI-COR blocking buffer containing 0.1% tween-20. Wells which were treated with blocking buffer but no antibody were used as background control. Wells were washed twice with PBS (0.1% tween-20) and incubated at 37° C. for 60 minutes in LI-COR (0.1% tween-20) containing goat anti-rabbit antibody Alexa 488 (1:1000) and Syto-64 a DNA dye ([…]). Cells were then washed 3 times in PBS and scanned in ACUMEN explorer (TTP-Labtech). Integrated intensities in the green fluorescence and red fluorescence were measured to determine the levels of ERα and DNA respectively.

Row | SMILES | % Degradation At 0.3 μM
1 | CC(C)(C)C(=O)Nc1ccc2c(c1)CCCC(c1ccc(Cl)cc1Cl)=C2c1ccc(O[C@H]2CCN(CCCF)C2)cc1 [Example 62, (S)—N-(8-(2,4-dichlorophenyl)-9-(4-((1-(3-fluoropropyl)pyrrolidin-3-yl)oxy)phenyl)-6,7-dihydro-5H-benzo[7]annulen-3-yl)pivalamide] | 68%
2 | OC(c1ccc2c(c1)CCCC(c1cccc(F)c1Cl)=C2c1ccc(O[C@H]2CCN(CCCF)C2)cc1)C(F)(F)F (stereo partly drawn) [Example 65, 1-(8-(2-chloro-3-fluorophenyl)-9-(4-(((S)-1-(3-fluoropropyl)pyrrolidin-3-yl)oxy)phenyl)-6,7-dihydro-5H-benzo[7]annulen-3-yl)-2,2,2-trifluoroethan-1-ol] | 90%
3 | O=C(Nc1ccc2c(c1)CCCC(c1ccc(Cl)cc1Cl)=C2c1ccc(O[C@H]2CCN(CCCF)C2)cc1)C1(F)CC1 [Example 66, (S)—N-(8-(2,4-dichlorophenyl)-9-(4-((1-(3-fluoropropyl)pyrrolidin-3-yl)oxy)phenyl)-6,7-dihydro-5H-benzo[7]annulen-3-yl)-1-fluorocyclopropane-1-carboxamide] | 74%
4 | CC1(C(=O)Nc2ccc3c(c2)CCCC(c2ccc(Cl)cc2Cl)=C3c2ccc(O[C@H]3CCN(CCCF)C3)cc2)CC1 [Example 67, (S)—N-(8-(2,4-dichlorophenyl)-9-(4-((1-(3-fluoropropyl)pyrrolidin-3-yl)oxy)phenyl)-6,7-dihydro-5H-benzo[7]annulen-3-yl)-1-methylcyclopropane-1-carboxamide] | 79%
5 | C/N=c1\scc(-c2ccc3c(c2)CCCC(c2ccc(Cl)cc2Cl)=C3c2ccc(O[C@H]3CCN(CCCF)C3)cc2)n1C [Example 69, (S,Z)-4-(8-(2,4-dichlorophenyl)-9-(4-((1-(3-fluoropropyl)pyrrolidin-3-yl)oxy)phenyl)-6,7-dihydro-5H-benzo[7]annulen-3-yl)-N,3-dimethylthiazol-2(3H)-imine hydrochloride] | 69%
6 | CC(C)(C)OC(=O)Nc1ccc2c(c1)CCCC(c1ccccc1)=C2c1ccc(O[C@H]2CCN(CCCF)C2)cc1 [Example 71, tert-butyl (S)-(9-(4-((1-(3-fluoropropyl)pyrrolidin-3-yl)oxy)phenyl)-8-phenyl-6,7-dihydro-5H-benzo[7]annulen-3-yl)carbamate] | 91%
7 | O=C(O)c1ccc(-c2ccc3c(c2)CCCC(c2ccc(Cl)cc2Cl)=C3c2ccc(O[C@H]3CCN(CCCF)C3)cc2)cc1 [Example 72, (S)-4-(8-(2,4-dichlorophenyl)-9-(4-((1-(3-fluoropropyl)pyrrolidin-3-yl)oxy)phenyl)-6,7-dihydro-5H-benzo[7]annulen-3-yl)benzoic acid] | 74%
8 | Nc1cc(-c2ccc3c(c2)CCCC(c2ccc(Cl)cc2Cl)=C3c2ccc(O[C@H]3CCN(CCCF)C3)cc2)n[nH]1 [Example 73, (S)-3-(8-(2,4-dichlorophenyl)-9-(4-((1-(3-fluoropropyl)pyrrolidin-3-yl)oxy)phenyl)-6,7-dihydro-5H-benzo[7]annulen-3-yl)-1H-pyrazol-5-amine] | 89%
9 | O=C(c1ccc2c(c1)CCCC(c1ccc(Cl)cc1Cl)=C2c1ccc(O[C@H]2CCN(CCCF)C2)cc1)N1CC(O)C1 [Example 74, (S)-(8-(2,4-dichlorophenyl)-9-(4-((1-(3-fluoropropyl)pyrrolidin-3-yl)oxy)phenyl)-6,7-dihydro-5H-benzo[7]annulen-3-yl)(3-hydroxyazetidin-1-yl)methanone] | 59%
10 | O=C(NC1COC1)c1ccc2c(c1)CCCC(c1ccc(Cl)cc1Cl)=C2c1ccc(O[C@H]2CCN(CCCF)C2)cc1 [Example 75, (S)-8-(2,4-dichlorophenyl)-9-(4-((1-(3-fluoropropyl)pyrrolidin-3-yl)oxy)phenyl)-N-(oxetan-3-yl)-6,7-dihydro-5H-benzo[7]annulene-3-carboxamide] | 71%
11 | CCOC(=O)C(=O)Nc1ccc2c(c1)CCCC(c1ccc(Cl)cc1Cl)=C2c1ccc(O[C@H]2CCN(CCCF)C2)cc1 [Example 76, ethyl (S)-2-((8-(2,4-dichlorophenyl)-9-(4-((1-(3-fluoropropyl)pyrrolidin-3-yl)oxy)phenyl)-6,7-dihydro-5H-benzo[7]annulen-3-yl)amino)-2-oxoacetate] | 75%

Same assay, conditions: 4 hours, final concentrations ranging from 3-0.000018 μM, relative to fulvestrant 0.1 μM positive control

Row | SMILES | % Degradation At 3 μM
12 | CC(=O)Nc1ccc2c(c1)CCCC(c1ccc(Cl)cc1Cl)=C2c1ccc(O[C@H]2CCN(CCCF)C2)cc1 [Example 48, (S)—N-(8-(2,4-dichlorophenyl)-9-(4-((1-(3-fluoropropyl)pyrrolidin-3-yl)oxy)phenyl)-6,7-dihydro-5H-benzo[7]annulen-3-yl)acetamide] | 70%
13 | FCCCN1CC[C@H](Oc2ccc(C3=C(c4ccc(Cl)cc4Cl)CCCc4cc(-c5cc[nH]n5)ccc43)cc2)C1 [Example 51, (S)-3-(8-(2,4-dichlorophenyl)-9-(4-((1-(3-fluoropropyl)pyrrolidin-3-yl)oxy)phenyl)-6,7-dihydro-5H-benzo[7]annulen-3-yl)-1H-pyrazole] | 81%
14 | O=C(O)c1cccc(-c2ccc3c(c2)CCCC(c2ccc(Cl)cc2Cl)=C3c2ccc(O[C@H]3CCN(CCCF)C3)cc2)c1 [Example 55, (S)-3-(8-(2,4-dichlorophenyl)-9-(4-((1-(3-fluoropropyl)pyrrolidin-3-yl)oxy)phenyl)-6,7-dihydro-5H-benzo[7]annulen-3-yl)benzoic acid] | 84%
15 | COC(=O)c1ccc(-c2ccc3c(c2)CCCC(c2ccc(Cl)cc2Cl)=C3c2ccc(O[C@H]3CCN(CCCF)C3)cc2)cc1 [Example 56, Methyl (S)-4-(8-(2,4-dichlorophenyl)-9-(4-((1-(3-fluoropropyl)pyrrolidin-3-yl)oxy)phenyl)-6,7-dihydro-5H-benzo[7]annulen-3-yl)benzoate] | 89%
16 | COC(=O)c1cccc(-c2ccc3c(c2)CCCC(c2ccc(Cl)cc2Cl)=C3c2ccc(O[C@H]3CCN(CCCF)C3)cc2)c1 [Example 57, Methyl (S)-3-(8-(2,4-dichlorophenyl)-9-(4-((1-(3-fluoropropyl)pyrrolidin-3-yl)oxy)phenyl)-6,7-dihydro-5H-benzo[7]annulen-3-yl)benzoate] | 87%
17 | O=C1CCCN1c1ccc2c(c1)CCCC(c1ccc(Cl)cc1Cl)=C2c1ccc(O[C@H]2CCN(CCCF)C2)cc1 [Example 58, (S)-1-(8-(2,4-dichlorophenyl)-9-(4-((1-(3-fluoropropyl)pyrrolidin-3-yl)oxy)phenyl)-6,7-dihydro-5H-benzo[7]annulen-3-yl)pyrrolidin-2-one] | 77%
18 | O=C(NNC(=S)n1ccnc1)c1ccc2c(c1)CCCC(c1ccc(Cl)cc1Cl)=C2c1ccc(O[C@H]2CCN(CCCF)C2)cc1 [Example 59, (S)-8-(2,4-dichlorophenyl)-9-(4-((1-(3-fluoropropyl)pyrrolidin-3-yl)oxy)phenyl)-N′-(1H-imidazole-1-carbonothioyl)-6,7-dihydro-5H-benzo[7]annulene-3-carbohydrazide] | 91%
19 | O=C(Nc1ccc2c(c1)CCCC(c1ccc(Cl)cc1Cl)=C2c1ccc(O[C@H]2CCN(CCCF)C2)cc1)C1CC1 [Example 60, (S)—N-(8-(2,4-dichlorophenyl)-9-(4-((1-(3-fluoropropyl)pyrrolidin-3-yl)oxy)phenyl)-6,7-dihydro-5H-benzo[7]annulen-3-yl)cyclopropanecarboxamide] | 74%
20 | Nc1nc(-c2ccc3c(c2)CCCC(c2ccc(Cl)cc2Cl)=C3c2ccc(O[C@H]3CCN(CCCF)C3)cc2)cs1 [Example 61, (S)-4-(8-(2,4-dichlorophenyl)-9-(4-((1-(3-fluoropropyl)pyrrolidin-3-yl)oxy)phenyl)-6,7-dihydro-5H-benzo[7]annulen-3-yl)thiazol-2-amine] | 76%
